In patent publication US9340506B2, “Acetamide derivatives as glucokinase activators, their process and medicinal applications” (ADVINUS THERAPEUTICS LIMITED, priority 2007, dated 2016):

Tests used:
[1] = biological target: purified human recombinant GK (Homo sapiens (Human), UniProt P35557); assay: Glucokinase activity assay (coupled enzymatic, G6PD/NADH absorbance at 340 nm); type: biochemical; conditions: for EC50: EC50 of % change in S0.5 of glucokinase for glucose, sigmoidal fit, read-out: EC50 (with respect to % ΔS0.5); for Emax: Emax of % change in S0.5 of glucokinase for glucose, vehicle S0.5 = 0%, 0 mM glucose = 100%, read-out: % Emax (with respect to % ΔS0.5)
From the text: The glucokinase (GK) assay is a coupled enzymatic assay. GK catalyzes the first step of glycolysis, the conversion of glucose to glucose-6-phosphate (G6P) in the presence of ATP. G6P in turn is converted by glucose-6-phosphate dehydrogenase (G6PD) to 6-phosphogluconate, a process that requires NAD, resulting in NADH formation. Since the GK-catalyzed step is the rate-limiting step of this coupled enzymatic process, the rate of accumulation of 6-phosphogluconate and NADH is directly proportional to the rate of glucose phosphorylation by GK. The rate of the GK-catalyzed reaction can therefore be measured by monitoring the increase in NADH absorbance at 340 nm.
The assay is carried out according to the protocol outlined in Hariharan et al (1997), Diabetes 46: 11-16. Briefly, the test compounds are incubated in a reaction mix containing 25 mM HEPES (pH 7.2), 10 mM MgCl2, 100 mM KCl, 5 mM ATP, 2 mM DTT, 0.5 mM NAD, 1 U/mL Leuconostoc mesenteroides G6PD, 0.3 U/mL of purified human recombinant GK, and different concentrations of glucose. Enzymatic activity is calculated from the initial reaction velocity, measured from the change in NADH absorbance as a function of time.
Compounds described in formula (I), in concentration ranges from 1.0 nM to 500 μM, are tested in the purified human recombinant glucokinase assay described above.
A compound is considered to be a glucokinase activator if it, in its testable range of concentrations, yields a higher rate of glucose phosphorylation than in its absence at a particular glucose concentration, for example at 5 mM glucose.
Compounds of general formula (I) are tested in the in vitro GK enzymatic assay to monitor dose-dependent effect on glucokinase activation (in kinetic mode), as described above, at various glucose concentrations. The S0.5 of glucokinase for glucose at different concentration of each compound of interest is calculated from the following modified version of the Michaelis-Menten equation, V=Vmax [S]^n/(S0.5^n+[S]^n), where [S] is the glucose concentration and n is the Hill coefficient (taken as 1.7 to account for the sigoidal kinetics of glucokinase with respect to glucose). The S0.5 is plotted against the log of the compound concentration. The change in the S0.5 of glucokinase (ΔS0.5) for glucose is calculated by subtracting the S0.5 at each concentration of the compound from the S0.5 in the vehicle control. The ΔS0.5 is then normalized to a percent scale, where the S0.5 in the vehicle control is set to 0% and 0 mM glucose is set to 100%. The % ΔS0.5 is then plotted against the log of the compound concentration. The EC50 and Emax of % change in S0.5 is obtained from the sigoidal fit of the data. Detailed protocol has been described in our copending application no. 409/CHE/2007 which is incorporated herein by reference. Characterization data of some representative glucokinase activators of the present disclosure, which are illustrative but not limiting, are given in table I below.

primary rat hepatocytes = assay: Glycogen synthesis in primary rat hepatocytes; type: cell-based; conditions: Hepatocyte, 10 μM concentration, primary hepatocytes from male Wistar rats, D-[U14C]-glucose, 3 hours, read-out: Glycogen synthesis, fold increase over DMSO control
Protocol: The glycogen deposition assay was carried out with few modifications in the original protocol as described in “Biochem J. 1990 Feb. 15; 266(1): 91-102”. In brief, primary hepatocytes were collected from male Wistar rats, and were seeded in a 48-well plate at a density of 150,000 cells/well in Minimal Essential Medium (MEM) containing 10% foetal calf serum (FCS) 100 nM insulin and 10 nM dexamethasone. followed by incubation for 4 hours at 37° C. The medium was replaced with fresh MEM containing 10% FCS and 10 nM dexamethasone and the cells were further incubated for 16 hours at 37° C. Following day, the medium was replaced with fresh MEM (serum-free) containing 2 μCi/ml of D-[U^14C]-glucose in the presence of the test compound. Hepatocytes were incubated for 3 hours at 37° C. followed by washing with 150 mM NaCl. Cells were lysed with 0.1 N NaOH, and the lysate was precipitated with 80% w/v trichloroacetic acid (TCA). Cell debris was pelleted by centrifugation, the supernatant was removed, and the glycogen was precipitated with 66% ethanol followed by drying overnight. Samples were dissolved in MiliQ water and transferred to 96 well reading plate, 100 μL scintillant was added per well and the plate was read in scintillation counter (MicroBeta Trilux, Perkin Elmer). Data was expressed as fold increase in glycogen synthesis over DMSO control (untreated hepatocytes).

Sequence of purified human recombinant GK (P35557 whole entry): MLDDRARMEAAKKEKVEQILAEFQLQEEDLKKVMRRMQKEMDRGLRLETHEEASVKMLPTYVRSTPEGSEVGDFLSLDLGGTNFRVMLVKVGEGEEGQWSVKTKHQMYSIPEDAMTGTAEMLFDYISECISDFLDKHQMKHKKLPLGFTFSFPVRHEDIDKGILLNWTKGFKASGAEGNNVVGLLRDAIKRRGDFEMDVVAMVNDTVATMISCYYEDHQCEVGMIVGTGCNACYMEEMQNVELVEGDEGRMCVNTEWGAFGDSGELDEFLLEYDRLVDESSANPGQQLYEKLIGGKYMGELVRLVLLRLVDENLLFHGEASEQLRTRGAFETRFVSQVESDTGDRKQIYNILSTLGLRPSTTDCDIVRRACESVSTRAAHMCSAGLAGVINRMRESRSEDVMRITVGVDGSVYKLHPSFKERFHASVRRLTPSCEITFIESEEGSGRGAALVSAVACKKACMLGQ

EC50 [1] [µM]	Emax [1] [%]	SMILES	fold induction at 10 µM (primary rat hepatocytes)
0.087	97	Cc1cc(Oc2cnc(NC(=O)C(OC3CCOCC3)c3ccc(S(=O)(=O)C4CC4)cc3)s2)ccc1C(=O)O (single isomer, unassigned; (+)) [Example G1A, (+)4-[2-[[2-(4-cyclopropylsulfonylphenyl)-2-tetrahydropyran-4-yloxy-acetyl]amino]thiazol-5-yl]oxy-2-methyl-benzoic acid]	> 2.5
0.19		O=C(O)c1cccc(Oc2cnc(NC(=O)C(OC3CCOCC3)c3ccc(S(=O)(=O)C4CC4)cc3)s2)c1 (single isomer, unassigned; (+)) [Example G8A, (+)3-[2-[[2-(4-cyclopropylsulfonylphenyl)-2-tetrahydropyran-4-yloxy-acetyl]amino]thiazol-5-yl]oxybenzoic acid]	> 2.5
0.27	92	COc1cc(Oc2cnc(NC(=O)C(OC3CCOCC3)c3ccc(S(=O)(=O)C4CC4)cc3)s2)ccc1C(=O)O (single isomer, unassigned; (+)) [Example G9A, (+)4-[2-[[2-(4-cyclopropylsulfonylphenyl)-2-tetrahydropyran-4-yloxy-acetyl]amino]thiazol-5-yl]oxy-2-methoxy-benzoic acid]	> 2.5
		O=C(O)c1cccc(Oc2cnc(NC(=O)C(O[C@@H]3CCOC3)c3ccc(S(=O)(=O)C4CC4)cc3)s2)c1 (single isomer, unassigned; (+)) [Example G21A]	> 2.5
0.95	85	O=C(Nc1ncc(F)s1)C(OC1CCOCC1)c1ccc(S(=O)(=O)N2CCOCC2)cc1 (stereo not drawn) [Example A-11, N-(5-fluorothiazol-2-yl)-2-(4-morpholinosulfonylphenyl)-2-tetrahydropyran-4-yloxy-acetamide]	
0.66	88	COc1ccc2nc(NC(=O)C(OC3CCOCC3)c3ccc(S(=O)(=O)N4CCOCC4)cc3)sc2n1 (stereo not drawn) [Example A-12, N-(5-methoxythiazolo[5,4-b]pyridin-2-yl)-2-(4-morpholinosulfonylphenyl)-2-tetrahydropyran-4-yloxy-acetamide]	
> 10		CN1CCC(OC(C(=O)Nc2ncc(F)s2)c2ccc(S(=O)(=O)C3CC3)cc2)CC1 (stereo not drawn) [Example A-32, 2-(4-Cyclopropylsulfonylphenyl)-N-(5-fluorothiazol-2-yl)-2-[(1-methyl-4-piperidyl)oxy]acetamide]	
> 10		CC(C)(C)OC(=O)c1ccc(NC(=O)C(Oc2ccc(F)cc2F)c2ccc(S(=O)(=O)N3CCOCC3)cc2)nc1 (stereo not drawn) [Example A-58, tert-Butyl 6-[[2-(2,4-difluorophenoxy)-2-(4-morpholinosulfonylphenyl)acetyl]amino]pyridine-3-carboxylate]	
3.7	83	O=C(O)C1CCc2nc(NC(=O)C(OC3CCOCC3)c3ccc(S(=O)(=O)C4CC4)cc3)sc2C1 (stereo not drawn) [Example B-4, 2-[[2-(4-cyclopropylsulfonylphenyl)-2-tetrahydropyran-4-yloxy-acetyl]amino]-4,5,6,7-tetrahydro-1,3-benzothiazole-6-carboxylic acid]	
0.093	89	Cc1cc(Oc2cnc(NC(=O)C(Oc3ccc(F)cc3F)c3ccc(S(=O)(=O)C4CC4)cc3)s2)ccc1C(=O)O (stereo not drawn) [Example B-9, 4-[2-[[2-(4-cyclopropylsulfonylphenyl)-2-(2,4-difluorophenoxy)acetyl]amino]thiazol-5-yl]oxy-2-methyl-benzoic acid]	
1.12	90	O=C(O)Cc1nc(NC(=O)C(OC2CCOCC2)c2ccc(S(=O)(=O)N3CCCCC3)cc2)sc1Cl (stereo not drawn) [Example B-12, 2-[5-chloro-2-[[2-[4-(1-piperidylsulfonyl)phenyl]-2-tetrahydropyran-4-yloxy-acetyl]amino]thiazol-4-yl]acetic acid]	
0.59	94	O=C(O)c1ccc(Oc2cnc(NC(=O)C(OC3CCOCC3)c3ccc(S(=O)(=O)C4CC4)cc3)s2)cc1Cl (stereo not drawn) [Example B-20, 2-chloro-4-[2-[[2-(4-cyclopropylsulfonylphenyl)-2-tetrahydropyran-4-yloxy-acetyl]amino]thiazol-5-yl]oxy-benzoic acid]	
0.48	94	O=C(O)c1cc(Oc2cnc(NC(=O)C(OC3CCOCC3)c3ccc(S(=O)(=O)C4CC4)cc3)s2)ccc1Cl (stereo not drawn) [Example B-23, 2-chloro-5-[2-[[2-(4-cyclopropylsulfonylphenyl)-2-tetrahydropyran-4-yloxy-acetyl]amino]thiazol-5-yl]oxy-benzoic acid]	
0.22	92	O=C(O)c1cc(-c2ccc(Oc3cnc(NC(=O)C(OC4CCOCC4)c4ccc(S(=O)(=O)C5CC5)cc4)s3)cc2)no1 (stereo not drawn) [Example B-26, 3-[4-[2-[[2-(4-cyclopropylsulfonylphenyl)-2-tetrahydropyran-4-yloxy-acetyl]amino]thiazol-5-yl]oxyphenyl]isoxazole-5-carboxylic acid]	
0.57	92	O=C(O)c1cc(Oc2cnc(NC(=O)C(OC3CCOCC3)c3ccc(S(=O)(=O)C4CC4)cc3)s2)ccn1 (stereo not drawn) [Example B-49, 4-[2-[[2-(4-cyclopropylsulfonylphenyl)-2-tetrahydropyran-4-yloxy-acetyl]amino]thiazol-5-yl]oxypyridine-2-carboxylic acid]	
0.74	89	O=C(O)c1ccc(NC(=O)C(Oc2ccc(Cl)cc2)c2ccc(S(=O)(=O)C3CC3)cc2)nc1 (stereo not drawn) [Example B-58, 6-[[2-(4-chlorophenoxy)-2-(4-cyclopropylsulfonylphenyl)acetyl]amino]pyridine-3-carboxylic acid]	
0.13	94	O=C(NC1CC1)c1ccc(Oc2cnc(NC(=O)C(OC3CCOCC3)c3ccc(S(=O)(=O)C4CC4)cc3)s2)cc1 (stereo not drawn) [Example C3, N-Cyclopropyl-4-[2-[[2-(4-cyclopropylsulfonylphenyl)-2-tetrahydropyran-4-yloxy-acetyl]amino]thiazol-5-yl]oxy-benzamide]	
0.14	92	O=C(Nc1ncc(Oc2cccc(CO)c2)s1)C(OC1CCOCC1)c1ccc(S(=O)(=O)C2CC2)cc1 (stereo not drawn) [Example D3, 2-(4-cyclopropylsulfonylphenyl)-N-[5-[3-(hydroxymethyl)phenoxy]thiazol-2-yl]-2-tetrahydropyran-4-yloxy-acetamide]	
1.5	93	O=C(Nc1nc2ccc(C(O)CO)nc2s1)C(OC1CCOCC1)c1ccc(S(=O)(=O)C2CC2)cc1 (stereo not drawn) [Example E2, 2-(4-Cyclopropanesulfonyl-phenyl)-N-[5-(1,2-dihydroxy-ethyl)-thiazolo[5,4-b]pyridin-2-yl]-2-(tetrahydro-pyran-4-yloxy)-acetamide]	
1.2	88	O=C(Nc1ncc(C(O)CO)s1)C(Oc1ccc(F)cc1F)c1ccc(S(=O)(=O)C2CC2)cc1 (stereo not drawn) [Example E3, 2-(4-cyclopropylsulfonylphenyl)-2-(2,4-difluorophenoxy)-N-[5-(1,2-dihydroxyethyl)thiazol-2-yl]acetamide]	
